Assays:
[1] = molecular target: T1, plasma kallikrein (Homo sapiens, UniProt P03952); assay: Neat human plasma assay, FXIIa contact pathway-activated, PFR-AMC substrate; format: biochemical; details: citrated human plasma 78% final, 10 nM human FXIIa, 100 μM PFR-AMC; read-out: Human Plasma Assay: IC90
T1 construct: from tissue
In short: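 Compound inhibition of plasma kallikrein measured as PFR-AMC (100 μM) cleavage rate over 5 min at room temperature in 78% citrated human plasma activated with 10 nM FXIIa (Tris pH 7.5 buffer). IC50/IC90 from 4-parameter fit of rate versus inhibitor concentration.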

[2] = molecular target: human activated kallikrein enzyme (Homo sapiens, UniProt P03952); assay: Plasma kallikrein inhibition, fluorogenic PFR-AMC substrate, 500 pM activated kallikrein format; format: biochemical; details: 500 pM activated kallikrein, 300 uM PFR-AMC, 30 min preincubation, 10 min reaction; read-out: Primary Dose Response Assay: Average EC50
In short: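 High-enzyme format of the fluorogenic peptide assay, with EC50 taken from AMC signal: 500 pM activated kallikrein, 300 uM Pro-Phe-Arg-AMC, 30 min compound preincubation and 10 min reaction, all at room temperature, pH 7.5.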

Chain of human activated kallikrein enzyme (P03952 391-638 limits assumed): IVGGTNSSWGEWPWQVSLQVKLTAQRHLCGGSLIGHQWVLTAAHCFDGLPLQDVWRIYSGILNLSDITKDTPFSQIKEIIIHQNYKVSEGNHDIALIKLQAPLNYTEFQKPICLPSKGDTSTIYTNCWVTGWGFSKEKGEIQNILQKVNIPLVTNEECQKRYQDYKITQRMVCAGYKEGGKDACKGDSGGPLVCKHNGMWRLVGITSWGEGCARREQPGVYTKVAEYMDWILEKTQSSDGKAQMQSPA
Chain of human activated kallikrein enzyme (P03952 20-390 partner limits assumed): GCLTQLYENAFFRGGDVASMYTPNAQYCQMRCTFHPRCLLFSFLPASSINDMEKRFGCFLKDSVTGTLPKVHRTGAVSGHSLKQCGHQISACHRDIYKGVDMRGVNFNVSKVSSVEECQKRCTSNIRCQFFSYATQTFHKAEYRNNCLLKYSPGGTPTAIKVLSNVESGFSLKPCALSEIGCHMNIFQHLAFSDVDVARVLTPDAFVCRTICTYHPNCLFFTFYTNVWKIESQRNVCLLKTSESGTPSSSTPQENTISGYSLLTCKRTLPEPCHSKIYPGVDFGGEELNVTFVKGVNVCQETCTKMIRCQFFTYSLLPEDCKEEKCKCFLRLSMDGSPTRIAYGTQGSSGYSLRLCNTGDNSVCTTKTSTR
T1 sequence (P03952 391-638 limits assumed): as the sequence (P03952 391-638 limits assumed) above
T1 sequence (P03952 20-390 partner limits assumed): as the sequence (P03952 20-390 partner limits assumed) above

## Cc1ccnc([C@H]2C[C@@H]2C(=O)Nc2cc(NCc3cn4cc(C5CC5)cc(N5CC(=O)N(C)C5=O)c4n3)cc(C(F)(F)F)n2)n1 (racemic) [Example 618, rac-(1S*,2S*)—N-(4-(((6-cyclopropyl-8-(3-methyl-2,4-dioxoimidazolidin-1-yl)imidazo[1,2-a]pyridin-2-yl)methyl)amino)-6-(trifluoromethyl)pyridin-2-yl)-2-(4-methylpyrimidin-2-yl)cyclopropane-1-carboxamide]
[1]
  IC90: 400 to 1500 nM
[2]
  EC50: < 1 nM

## COCC1CN(c2cc(C3CC3)cn3cc(CNc4cc(NC(=O)[C@H]5C[C@@H]5c5cccc(Cl)c5)ncn4)nc23)CCN1C (stereo partly drawn) [Example I-6, (1S,2S)-2-(3-chlorophenyl)-N-(6-(((6-cyclopropyl-8-(3-(methoxymethyl)-4-methylpiperazin-1-yl)imidazo[1,2-a]pyridin-2-yl)methyl)amino)pyrimidin-4-yl)cyclopropane-1-carboxamide]
[1]
  IC90: 1500 to 10000 nM
[2]
  EC50: 1 to 10 nM

## CN(C)C1CN(c2cc(C3CC3)cn3cc(CNc4ccnc(NC(=O)[C@H]5C[C@@H]5c5cccc(Cl)c5)c4)nc23)C1 [Example I-4, (1S,2S)-2-(3-chlorophenyl)-N-(4-(((6-cyclopropyl-8-(3-(dimethylamino)azetidin-1-yl)imidazo[1,2-a]pyridin-2-yl)methyl)amino)pyridin-2-yl)cyclopropane-1-carboxamide]
[1]
  IC90: 1500 to 10000 nM
[2]
  EC50: < 1 nM

## COc1ccc(C#N)c([C@H]2C[C@@H]2C(=O)Nc2cc(OCc3cn4cc(C5CC5)cc(N5CC(=O)N(C)C5=O)c4n3)cnn2)c1 (racemic) [Example 559, rac-(1S*,2S*)-2-(2-cyano-5-methoxyphenyl)-N-(5-((6-cyclopropyl-8-(3-methyl-2,4-dioxoimidazolidin-1-yl)imidazo[1,2-a]pyridin-2-yl)methoxy)pyridazin-3-yl)cyclopropane-1-carboxamide]
[1]
  IC90: 400 to 1500 nM
[2]
  EC50: 1 to 10 nM

## Cc1ccnc([C@H]2C[C@@H]2C(=O)Nc2cc(N3C[C@@H](O)C[C@@H]3c3cn4cc(C5CC5)cc(N5CC(=O)N(C)C5=O)c4n3)ncn2)n1 (relative stereo) [Example 473, rac-(1S*,2S*)-N-(6-((2R,4S)-2-(6-cyclopropyl-8-(3-methyl-2,4-dioxoimidazolidin-1-yl)imidazo[1,2-a]pyridin-2-yl)-4-hydroxypyrrolidin-1-yl)pyrimidin-4-yl)-2-(4-methylpyrimidin-2-yl)cyclopropane-1-carboxamide]
[1]
  IC90: 400 to 1500 nM
[2]
  EC50: < 1 nM

## CN1CC(F)(c2cc(C3CC3)cn3cc(CNc4ccnc(NC(=O)[C@H]5C[C@@H]5c5cccc(Cl)c5)c4)nc23)C1 [Example I-227, (1S,2S)-2-(3-chlorophenyl)-N-(4-(((6-cyclopropyl-8-(3-fluoro-1-methylazetidin-3-yl)imidazo[1,2-a]pyridin-2-yl)methyl)amino)pyridin-2-yl)cyclopropane-1-carboxamide]
[1]
  IC90: < 400 nM
[2]
  EC50: < 1 nM

## Cc1ccnc([C@H]2C[C@@H]2C(=O)Nc2nc(NCc3cn4cc(C5CC5)cc(N5CC(=O)N(C)C5=O)c4n3)nc(C3CC3)n2)n1 (racemic) [Example 523, rac-(1S*,2S*)-N-(4-cyclopropyl-6-(((6-cyclopropyl-8-(3-methyl-2,4-dioxoimidazolidin-1-yl)imidazo[1,2-a]pyridin-2-yl)methyl)amino)-1,3,5-triazin-2-yl)-2-(4-methylpyrimidin-2-yl)cyclopropane-1-carboxamide]
[1]
  IC90: < 400 nM
[2]
  EC50: < 1 nM

## Cc1cc(NCc2cn3cc(C4CC4)ccc3n2)cc(NC(=O)[C@H]2C[C@@H]2c2cc(Cl)ccc2C#N)n1 (racemic) [Example 342, rac-(1S*,2S*)-2-(5-chloro-2-cyanophenyl)-N-(4-(((6-cyclopropylimidazo[1,2-a]pyridin-2-yl)methyl)amino)-6-methylpyridin-2-yl)cyclopropane-1-carboxamide]
[1]
  IC90: 1500 to 10000 nM
[2]
  EC50: < 1 nM

## Cc1ccnc([C@H]2C[C@@H]2C(=O)Nc2cc(OC(C)c3cn4cc(C5CC5)cc(N5CC(=O)N(C)C5=O)c4n3)nc(C)n2)n1 (stereo partly drawn) [Example 552, (1S,2S)-N-(6-(1-(6-cyclopropyl-8-(3-methyl-2,4-dioxoimidazolidin-1-yl)imidazo[1,2-a]pyridin-2-yl)ethoxy)-2-methylpyrimidin-4-yl)-2-(4-methylpyrimidin-2-yl)cyclopropane-1-carboxamide]
[1]
  IC90: 1500 to 10000 nM
[2]
  EC50: < 1 nM

## Cc1ccnc([C@@H]2C[C@H]2C(=O)Nc2cc(OCc3cn4cc(C5CC5)cc(N5CC(=O)N(C)C5=O)c4n3)ncn2)n1 (racemic) [Example 28, rac-(1S*,2S*)—N-(6-((6-cyclopropyl-8-(3-methyl-2,4-dioxoimidazolidin-1-yl)imidazo[1,2-a]pyridin-2-yl)methoxy)pyrimidin-4-yl)-2-(4-methylpyrimidin-2-yl)cyclopropane-1-carboxamide]
[1]
  IC90: 400 to 1500 nM
[2]
  EC50: < 1 nM

## Cc1ccnc([C@H]2C[C@@H]2C(=O)Nc2cc(N3C[C@@H](O)C[C@@H]3c3cn4cc(C5CC5)cc(N5CCOC5=O)c4n3)ncn2)n1 (relative stereo) [Example 471, rac-(1S*,2S*)-N-(6-((2R,4S)-2-(6-cyclopropyl-8-(2-oxooxazolidin-3-yl)imidazo[1,2-a]pyridin-2-yl)-4-hydroxypyrrolidin-1-yl)pyrimidin-4-yl)-2-(4-methylpyrimidin-2-yl)cyclopropane-1-carboxamide]
[1]
  IC90: 400 to 1500 nM
[2]
  EC50: < 1 nM

## CN1C(=O)CN(c2cc(C3CC3)cn3cc(CNc4ccnc(NC(=O)[C@H]5C[C@@H]5c5cccc(Cl)c5)c4)nc23)C1=O [Example I-209, (1S,2S)-2-(3-chlorophenyl)-N-(4-(((6-cyclopropyl-8-(3-methyl-2,4-dioxoimidazolidin-1-yl)imidazo[1,2-a]pyridin-2-yl)methyl)amino)pyridin-2-yl)cyclopropane-1-carboxamide]
[1]
  IC90: 400 to 1500 nM
[2]
  EC50: < 1 nM

## O=C(Nc1cc(NCc2cn3cc(C4CC4)cc(N4CC5CC5C4=O)c3n2)ncn1)[C@H]1C[C@@H]1c1cc(Cl)ccn1 (stereo partly drawn) [Example 327, (1S,2S)-2-(4-chloropyridin-2-yl)-N-(6-(((6-cyclopropyl-8-(2-oxo-3-azabicyclo[3.1.0]hexan-3-yl)imidazo[1,2-a]pyridin-2-yl)methyl)amino)pyrimidin-4-yl)cyclopropane-1-carboxamide]
[1]
  IC90: < 400 nM
[2]
  EC50: < 1 nM

## O=C(Nc1cc(NCc2cn3cc(C4CC4)cc(C4CNC4)c3n2)ccn1)[C@H]1C[C@@H]1c1cccc(Cl)c1 [Example 284, (1S,2S)—N-(4-(((8-(azetidin-3-yl)-6-cyclopropylimidazo[1,2-a]pyridin-2-yl)methyl)amino)pyridin-2-yl)-2-(3-chlorophenyl)cyclopropane-1-carboxamide]
[1]
  IC90: < 400 nM
[2]
  EC50: < 1 nM

## Cc1ccnc([C@H]2C[C@@H]2C(=O)Nc2cc(N[C@H](C)c3cn4cc(C5CC5)cc(N5CC(=O)N(C)C5=O)c4n3)nc(OCCN(C)C)n2)n1 [Example 276, (1S,2S)—N-(6-(((R)-1-(6-cyclopropyl-8-(3-methyl-2,4-dioxoimidazolidin-1-yl)imidazo[1,2-a]pyridin-2-yl)ethyl)amino)-2-(2-(dimethylamino)ethoxy)pyrimidin-4-yl)-2-(4-methylpyrimidin-2-yl)cyclopropane-1-carboxamide]
[1]
  IC90: < 400 nM
[2]
  EC50: < 1 nM

## O=C(Nc1cc(NCc2cn3cc(C4CC4)cc(N4CCN(CC5CC5)CC4)c3n2)ccn1)[C@H]1C[C@@H]1c1cccc(Cl)c1 [Example 601, (1S,2S)-2-(3-chlorophenyl)-N-(4-(((6-cyclopropyl-8-(4-(cyclopropylmethyl)piperazin-1-yl)imidazo[1,2-a]pyridin-2-yl)methyl)amino)pyridin-2-yl)cyclopropane-1-carboxamide]
[1]
  IC90: 400 to 1500 nM
[2]
  EC50: < 1 nM

## N#Cc1ccc(Cl)c(F)c1[C@H]1C[C@@H]1C(=O)Nc1cc(NCc2cn3cc(C4CC4)ccc3n2)ncn1 (racemic) [Example 50, rac-(1S*,2S*)-2-(3-chloro-6-cyano-2-fluorophenyl)-N-(6-(((6-cyclopropylimidazo[1,2-a]pyridin-2-yl)methyl)amino)pyrimidin-4-yl)cyclopropane-1-carboxamide]
[1]
  IC90: 10000 to 48000 nM
[2]
  EC50: 1 to 10 nM

## CC[C@@H](Nc1cc(NC(=O)[C@H]2C[C@@H]2c2nccc(C)n2)nc(C)n1)c1cn2cc(C3CC3)cc(N3CC(=O)N(C)C3=O)c2n1 [Example 358, (1S,2S)-N-(6-(((R)-1-(6-cyclopropyl-8-(3-methyl-2,4-dioxoimidazolidin-1-yl)imidazo[1,2-a]pyridin-2-yl)propyl)amino)-2-methylpyrimidin-4-yl)-2-(4-methylpyrimidin-2-yl)cyclopropane-1-carboxamide]
[1]
  IC90: 400 to 1500 nM
[2]
  EC50: < 1 nM

## Cc1cc(NCc2cn3cc(C4CC4)cc(N4CC(=O)N(C)C4=O)c3n2)nc(NC(=O)[C@H]2C[C@@H]2c2nccc(C)n2)n1 (racemic) [Example 519, rac-(1S*,2S*)-N-(4-(((6-cyclopropyl-8-(3-methyl-2,4-dioxoimidazolidin-1-yl)imidazo[1,2-a]pyridin-2-yl)methyl)amino)-6-methylpyrimidin-2-yl)-2-(4-methylpyrimidin-2-yl)cyclopropane-1-carboxamide]
[1]
  IC90: < 400 nM
[2]
  EC50: < 1 nM

## Cc1ccnc([C@H]2C[C@@H]2C(=O)Nc2cc(NCc3cn4cc(C5CC5)cc(N5CC(=O)N(C)C5=O)c4n3)nc(CF)n2)n1 (racemic) [Example 353, rac-(1S*,2S*)—N-(6-(((6-cyclopropyl-8-(3-methyl-2,4-dioxoimidazolidin-1-yl)imidazo[1,2-a]pyridin-2-yl)methyl)amino)-2-(fluoromethyl)pyrimidin-4-yl)-2-(4-methylpyrimidin-2-yl)cyclopropane-1-carboxamide]
[1]
  IC90: 400 to 1500 nM
[2]
  EC50: < 1 nM
